Source: US20250250258A1, “CRYSTAL FORM OF FGFR4 SELECTIVE INHIBITOR COMPOUND, AND PREPARATION METHOD THEREFOR AND USE THEREOF” (ZHEJIANG HISUN PHARMACEUTICAL CO., LTD., priority 2022, published 2025)
pIC50: −log10 of the molar value. Where two headings read alike, the source gives them in different places.

How the values were obtained:
[1] = Comparative solubility assay in water; format: physicochemical
[2] = Stability test (25° C., 40° C., light irradiation of 4500 LX, 30 days); format: physicochemical
Procedure: The compound represented by formula (I) of the present disclosure was subjected to HPLC for purity detection under the following conditions. The used chromatographic column was Waters, XBridge C18 4.6×150 mm, 3.5 μm; the mobile phase A consisted of buffer solution: acetonitrile=70:30, the mobile phase B consisted of buffer solution: acetonitrile=[…], the buffer solution was prepared by weighing 9.13 g of dipotassium hydrogen phosphate trihydrate in 2,000 mL of pure water, and adjusting pH using phosphoric acid to 8.0; the detection wavelength was 234 nm; the flow rate was 1.0 mL/min; the column temperature was 25° C.; and the injection volume was 10 μL.

[3] = Pharmacokinetic experiment in ICR mice, single gavage; format: in vivo; settings: 75 mg·kg −1, single gavage
Procedure: Before and 0.25, 0.5, 1, 2, 4, 8, 10, 12 and 24 hours after administration, 0.15 mL blood was collected from fundus venous plexus and placed into anticoagulant tubes containing EDTA-K2.

[4] = tested on: hepatocellular carcinoma cells Hep3B; settings: reported in background for PCT/CN2017/085135 compound, read-out: inhibitory activity against hepatocellular carcinoma cells Hep3B, IC50; cited from earlier work
[5] = stability at 25° C., day 0, HPLC
[6] = stability at 25° C., day 10, HPLC
[7] = stability at 25° C., day 30, HPLC
[8] = stability at 40° C., day 0, HPLC
[9] = stability at 40° C., day 10, HPLC
[10] = stability at 40° C., day 30, HPLC
[11] = stability under the light irradiation of 4500LX, day 0, HPLC
[12] = stability under the light irradiation of 4500LX, day 10, HPLC
[13] = stability under the light irradiation of 4500LX, day 30, HPLC

| solubility ([1]; 25 °C, thermodynamic from solid) [mg/mL] | purity (%) [2, 5] [%] | purity (%) [2, 6] [%] | purity (%) [2, 7] [%] | purity (%) [2, 8] [%] | purity (%) [2, 9] [%] | purity (%) [2, 10] [%] | purity (%) [2, 11] [%] | purity (%) [2, 12] [%] | purity (%) [2, 13] [%] | Tmax ([3]; ICR, mouse, in vivo, po, 75 mg/kg, read-out: Tmax) [min] | solubility in water at 25° C. [1] | solubility in water at 25° C. ([1]; listed as the crystal form A of the compound represented by formula (I)) [mg/mL] | Tmax [3] [min] | Cmax ([3]; mouse, in vivo, po) [µg/mL] | half-life ([3]; mouse, in vivo, po) [min] | AUC(0-t) ([3]; mouse, in vivo, po, 0-24 h sampling) [µg·h/mL] | SMILES | pIC50 [4] |
| --- | --- | --- | --- | --- | --- | --- | --- | --- | --- | --- | --- | --- | --- | --- | --- | --- | --- | --- |
| 115 | 98.80 | 96.60 | 91.60 | 98.80 | 93.40 | 87.60 | 98.80 | 86.20 | 73.70 | 30 | – | – | – | – | – | – | C=CC(=O)Nc1cc(N2CCN(CC)C3(CC3)C2)ccc1Nc1cc(N(C)C(=O)Nc2c(Cl)c(OC)cc(OC)c2Cl)ncn1.CCS(=O)(=O)O.CCS(=O)(=O)O [amorphous form, N-(2-((6-(3-(2,6-dichloro-3,5-dimethoxyphenyl)-1-methylureido)pyrimidin-4-yl)amino)-5-(4-ethyl-4,7-diazaspiro[2.5]octan-7-yl)phenyl)acrylamide diethanesulfonate salt] | – |
| – | – | – | – | – | – | – | – | – | – | – | insoluble | – | – | – | – | – | C=CC(=O)Nc1cc(N2CCN(CC)C3(CC3)C2)ccc1Nc1cc(N(C)C(=O)Nc2c(Cl)c(OC)cc(OC)c2Cl)ncn1 [N-(2-((6-(3-(2,6-dichloro-3,5-dimethoxyphenyl)-1-methylureido)pyrimidin-4-yl)amino)-5-(4-ethyl-4,7-diazaspiro[2.5]octane-7-yl)phenyl)acrylamide] | 7.72 |
| – | 99.64 | 99.63 | 99.62 | 99.64 | 99.61 | 99.60 | 99.64 | 99.61 | 99.54 | – | – | 100 | 36.6 | 3.98 | 91.2 | 9.34 | C=CC(=O)Nc1cc(N2CCN(CC)C3(CC3)C2)ccc1Nc1cc(N(C)C(=O)Nc2c(Cl)c(OC)cc(OC)c2Cl)ncn1.CCS(=O)(=O)O.CCS(=O)(=O)O [crystal form A, N-(2-((6-(3-(2,6-dichloro-3,5-dimethoxyphenyl)-1-methylureido)pyrimidin-4-yl)amino)-5-(4-ethyl-4,7-diazaspiro[2.5]octan-7-yl)phenyl)acrylamide diethanesulfonate salt] | – |
